System: HCV genotype-1a variant with glutamine 30 changed to glutamate in the NS5A protein
Type: cell-based
Conditions: test compound titrated with BMS-790052 fixed at 200 nM; genotype 1a Q30E replicon
Source text: The NS5A synergistic inhibitory effect of test compounds can be determined using various amounts of an NS5A-targeting compound with titration of a second compound of interest. […] In one embodiment, the HCV genotype strain can be genotype 1a containing a change at amino acid 30 of the NS5A protein consisting of glutamine to glutamate. The test compound can be chosen from compounds listed above or from others present in the literature.

| SMILES | Fold-Synergistic 1a (Q30E) |
| --- | --- |
| CC(C)(C)C(NC(=O)C1(NC(=O)C2CC2(F)F)CCCCC1)c1nc(-c2ccc(-c3ccc(-c4c[nH]c(C(NC(=O)C5(NC(=O)C6CC6(F)F)CCCCC5)C(C)(C)C)n4)cc3)cc2)c[nH]1 (mixture of isomers) [Compound W-277] | >100 fold |
| CC(C)(C)C(NC(=O)C1CC12CCC(F)(F)CC2)c1nc(-c2ccc(-c3ccc(-c4c[nH]c(C(NC(=O)C5CC56CCC(F)(F)CC6)C(C)(C)C)n4)cc3)cc2)c[nH]1 (mixture of isomers) [Compound Y-70] | >100 fold |
| CC1(C(=O)NC(c2nc(-c3ccc(-c4ccc(-c5c[nH]c(C(NC(=O)C6(C)CCCCC6=O)C(C)(C)C)n5)cc4)cc3)c[nH]2)C(C)(C)C)CCCCC1=O (mixture of isomers) [Compound Y-98] | >100 fold |
| CC1(C(=O)NC(c2nc(-c3ccc(-c4ccc(-c5c[nH]c(C(NC(=O)C6(C)CCCOC6)C(C)(C)C)n5)cc4)cc3)c[nH]2)C(C)(C)C)CCCOC1 (mixture of isomers) [Compound Y-100] | >100 fold |
| CC(C)(C)C(NC(=O)C1(CO)CCCOC1)c1nc(-c2ccc(-c3ccc(-c4c[nH]c(C(NC(=O)C5(CO)CCCOC5)C(C)(C)C)n4)cc3)cc2)c[nH]1 (mixture of isomers) [Compound Y-101] | >100 fold |
| CC(C)(C)C(NC(=O)C1(O)CCCOC1)c1nc(-c2ccc(-c3ccc(-c4c[nH]c(C(NC(=O)C5(O)CCCOC5)C(C)(C)C)n4)cc3)cc2)c[nH]1 (mixture of isomers) [Compound Y-102] | >100 fold |
| CC(C)(C)[C@H](NC(=O)C1CC12CCOCC2)c1ncc(-c2ccc(-c3ccc(-c4cnc([C@@H](NC(=O)C5CC56CCOCC6)C(C)(C)C)[nH]4)cc3)cc2)[nH]1 (single isomer, unassigned) [Compound B70] | >100 fold |
| CC(C)(C)[C@H](NC(=O)C1CC12CCOCC2)c1ncc(-c2ccc(-c3ccc(-c4cnc([C@@H](NC(=O)C5CC56CCOCC6)C(C)(C)C)[nH]4)cc3)cc2)[nH]1 (single isomer, unassigned) [Compound B71] | >100 fold |
| CC(C)(C)[C@H](NC(=O)C1CC12CCOCC2)c1ncc(-c2ccc(-c3ccc(-c4cnc([C@@H](NC(=O)C5CC56CCOCC6)C(C)(C)C)[nH]4)cc3)cc2)[nH]1 (single isomer, unassigned) [Compound B72] | >100 fold |
| CC(O)C1(C(=O)N[C@H](c2ncc(-c3ccc(-c4ccc(-c5cnc([C@@H](NC(=O)C6(C(C)O)CC6)C(C)(C)C)[nH]5)cc4)cc3)[nH]2)C(C)(C)C)CC1 (single isomer, unassigned) [Compound B73] | >100 fold |
| CC(O)C1(C(=O)N[C@H](c2ncc(-c3ccc(-c4ccc(-c5cnc([C@@H](NC(=O)C6(C(C)O)CC6)C(C)(C)C)[nH]5)cc4)cc3)[nH]2)C(C)(C)C)CC1 (single isomer, unassigned) [Compound B74] | >100 fold |
| CC(O)C1(C(=O)N[C@H](c2ncc(-c3ccc(-c4ccc(-c5cnc([C@@H](NC(=O)C6(C(C)O)CC6)C(C)(C)C)[nH]5)cc4)cc3)[nH]2)C(C)(C)C)CC1 (single isomer, unassigned) [Compound B75] | >100 fold |
| CC(O)C(C)(C)C(=O)N[C@H](c1ncc(-c2ccc(-c3ccc(-c4cnc([C@@H](NC(=O)C(C)(C)C(C)O)C(C)(C)C)[nH]4)cc3)cc2)[nH]1)C(C)(C)C (single isomer, unassigned) [Compound B76] | >100 fold |
| CC(O)C(C)(C)C(=O)N[C@H](c1ncc(-c2ccc(-c3ccc(-c4cnc([C@@H](NC(=O)C(C)(C)C(C)O)C(C)(C)C)[nH]4)cc3)cc2)[nH]1)C(C)(C)C (single isomer, unassigned) [Compound B78] | >100 fold |
| CC1(C)CC1C(=O)N[C@H](c1ncc(-c2ccc(-c3ccc(-c4cnc([C@@H](NC(=O)C5CC5(C)C)C(C)(C)C)[nH]4)cc3)cc2)[nH]1)C(C)(C)C (single isomer, unassigned) [Compound B79] | >100 fold |
| CC1(C)CC1C(=O)N[C@H](c1ncc(-c2ccc(-c3ccc(-c4cnc([C@@H](NC(=O)C5CC5(C)C)C(C)(C)C)[nH]4)cc3)cc2)[nH]1)C(C)(C)C (single isomer, unassigned) [Compound B80] | >100 fold |
| CC1(C)CC1C(=O)N[C@H](c1ncc(-c2ccc(-c3ccc(-c4cnc([C@@H](NC(=O)C5CC5(C)C)C(C)(C)C)[nH]4)cc3)cc2)[nH]1)C(C)(C)C (single isomer, unassigned) [Compound B81] | >100 fold |
| CC(C)(C(=O)N[C@H](c1nc(-c2ccc(-c3ccc(-c4cnc([C@@H](NC(=O)C(C)(C)C5CCCO5)C(C)(C)C)[nH]4)cc3)cc2)c[nH]1)C(C)(C)C)C1CCCO1 (single isomer, unassigned) [Compound B170] | >100 fold |
| CC(C)(C)[C@H](NC(=O)C1C2CCOC21)c1nc(-c2ccc(-c3ccc(-c4cnc([C@@H](NC(=O)C5C6CCOC65)C(C)(C)C)[nH]4)cc3)cc2)c[nH]1 (single isomer, unassigned) [Compound B-163] | >100 fold |
| CC(C)(C)[C@H](NC(=O)C1C2CCOC21)c1nc(-c2ccc(-c3ccc(-c4cnc([C@@H](NC(=O)C5C6CCOC65)C(C)(C)C)[nH]4)cc3)cc2)c[nH]1 (single isomer, unassigned) [Compound B-164] | >100 fold |
| CC(C)(C)[C@H](NC(=O)C1C2CCOC21)c1nc(-c2ccc(-c3ccc(-c4cnc([C@@H](NC(=O)C5C6CCOC65)C(C)(C)C)[nH]4)cc3)cc2)c[nH]1 (single isomer, unassigned) [Compound B-165] | >100 fold |
| CC(C)(C(=O)N[C@H](c1nc(-c2ccc(-c3ccc(-c4cnc([C@@H](NC(=O)C(C)(C)C5CCCO5)C(C)(C)C)[nH]4)cc3)cc2)c[nH]1)C(C)(C)C)C1CCCO1 (single isomer, unassigned) [Compound B-169] | >100 fold |
| CC(C)(C(=O)N[C@H](c1nc(-c2ccc(-c3ccc(-c4cnc([C@@H](NC(=O)C(C)(C)C5CCCO5)C(C)(C)C)[nH]4)cc3)cc2)c[nH]1)C(C)(C)C)C1CCCO1 (single isomer, unassigned) [Compound B-171] | >100 fold |
| CC(C)[C@H](NC(=O)C1(C(C)O)CC1)c1ncc(-c2ccc(-c3ccc(-c4cnc([C@@H](NC(=O)C5(C(C)O)CC5)C(C)C)n4C)cc3)cc2)n1C (single isomer, unassigned) [Compound B-202] | >10 fold |
| CC(C)[C@H](NC(=O)C1(C(C)O)CC1)c1ncc(-c2ccc(-c3ccc(-c4cnc([C@@H](NC(=O)C5(C(C)O)CC5)C(C)C)n4C)cc3)cc2)n1C (single isomer, unassigned) [Compound B-204] | >10 fold |

Source: patent US20160158200A1, “Combinations of Hepatitis C Virus Inhibitors” (priority 2013, published 2016)
